The values that follow come from patent EP0278158A2, “Renin inhibitors containing phenylalanyl-histidine replacements” (Merck & Co., Inc., priority 1986, dated 1988).

Non-standard residues stand in square brackets, D forms with d. Residues, ends and D or L forms follow the SMILES beside them. *: point of attachment. Sta = CC(C)C[C@H](N)[C@@H](O)CC(=O)O; Isovaleryl = CC(C)CC(=O)*

For one experiment, the target named is T1, renin (Homo sapiens, UniProt P00797).
T1 sequence (P00797 67-406): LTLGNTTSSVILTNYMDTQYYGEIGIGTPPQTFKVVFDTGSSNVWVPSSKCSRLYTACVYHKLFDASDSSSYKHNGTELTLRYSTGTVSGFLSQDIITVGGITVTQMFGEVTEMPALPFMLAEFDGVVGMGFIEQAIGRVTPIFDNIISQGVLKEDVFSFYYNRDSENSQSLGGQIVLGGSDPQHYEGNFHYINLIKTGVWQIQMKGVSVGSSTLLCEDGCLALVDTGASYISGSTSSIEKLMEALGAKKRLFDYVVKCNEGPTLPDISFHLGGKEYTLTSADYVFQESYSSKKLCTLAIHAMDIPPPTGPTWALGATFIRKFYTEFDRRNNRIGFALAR
The experiment in a line: renin inhibition (IC50 printed in the synthesis example, no method described). It is filed as biochemical.

A further experiment concerns hog renin. The note with it: after the injection of hog renin into nephrectomized rats; Gross et al., Science 175:656, 1972; cited from earlier work.

On renin, `CC(C)S(=O)(=O)C[C@@H](CCc1ccccc1)C(=O)N[C@@H](Cc1cnc[nH]1)C(=O)N[C@@H](CC1CCCCC1)[C@@H](O)CC(=O)NC1CN2CCC1CC2` (stereo partly drawn) [3-benzyl-2-(S)-(isopropylsuffonylmethyl)propionyl-L-histidyl-(3S,4S)-4-amino-5-cyclohexyl 3-hydroxypentanoyl 3-quinuclidinyl amide] registered an IC50 of 0.011 µM.

With `CC(C)CC(=O)N[C@H](C(=O)N[C@H](C(=O)N[C@@H](CC(C)C)[C@@H](O)CC(=O)N[C@@H](C)C(=O)N[C@@H](CC(C)C)[C@@H](O)CC(=O)O)C(C)C)C(C)C` [pepstatin] (Isovaleryl-VV[Sta]A[Sta]-OH), the “blood pressure in vivo” value in the experiment with hog renin is on record as “reduces blood pressure”.
